Reference: patent US20070049592A1, “Bis-aryl urea compounds and methods of use” (priority 2005, published 2007)

How the values were obtained:
[1] = tested on: Human Umbilical Vein Endothelial cells; assay: HUVEC proliferation assay (VEGF); assay type: cell-based; conditions: VEGF-stimulated HUVEC proliferation
Protocol: Human Umbilical Vein Endothelial cells are purchased from Clonetics, Inc., as cryopreserved cells harvested from a pool of donors. These cells, at passage 1, are thawed and expanded in EBM-2 complete medium, until passage 2 or 3. The cells are trypsinized, washed in DMEM+10% FBS+antibiotics, and spun at 1000 rpm for 10 min. Prior to centrifugation of the cells, a small amount is collected for a cell count. After centrifugation, the medium is discarded, and the cells are resuspended in the appropriate volume of DMEM+10% FBS+antibiotics to achieve a concentration of 3×10^5 cells/mL. Another cell count is performed to confirm the cell concentration. The cells are diluted to 3×10^4 cells/mL in DMEM+10% FBS+antibiotics, and 100 μL of cells are added to a 96-well plate. The cells are incubated at 37° C. for 22 h.
Prior to the completion of the incubation period, compound dilutions are prepared. Five-point, five-fold serial dilutions are prepared in DMSO, at concentrations 400-fold greater than the final concentrations desired. 2.5 μL of each compound dilution are diluted further in a total of 1 mL DMEM+10% FBS+antibiotics (400× dilution). Medium containing 0.25% DMSO is also prepared for the 0 μM compound sample. At the 22 h timepoint, the medium is removed from the cells, and 100 μL of each compound dilution is added. The cells are incubated at 37° C. for 2-3 h.
During the compound pre-incubation period, the growth factors are diluted to the appropriate concentrations. Solutions of DMEM+10% FBS+antibiotics, containing either VEGF or bFGF at the following concentrations: 50, 10, 2, 0.4, 0.08, and 0 ng/mL are prepared. For the compound-treated cells, solutions of VEGF at 550 ng/mL or bFGF at 220 ng/mL for 50 ng/mL or 20 ng/mL final concentrations, respectively, are prepared since 10 μL of each will be added to the cells (110 μL final volume). At the appropriate time after adding the compounds, the growth factors are added. VEGF is added to one set of plates, while bFGF is added to another set of plates. For the growth factor control curves, the media on wells B4-G6 of plates 1 and 2 are replaced with media containing VEGF or bFGF at the varying concentrations (50-0 ng/mL). The cells are incubated at 37° C. for an additional 72 h.
At the completion of the 72 h incubation period, the medium is removed, and the cells are washed twice with PBS. After the second wash with PBS, the plates are tapped gently to remove excess PBS, and the cells are placed at −70° C. for at least 30 min. The cells are thawed and analyzed using the CyQuant fluorescent dye (Molecular Probes C-7026), following the manufacturer's recommendations. The plates are read on a Victor/Wallac 1420 workstation at 485 nm/530 nm (excitation/emission). Raw data is collected and analyzed using a 4-parameter fit equation in XLFit. IC50 values are then determined.

[2] = tested on: production of TNF by monocytes activated with bacterial lipopolysaccharide (LPS); assay: Lipopolysaccharide-activated monocyte TNF production assay; assay type: cell-based; conditions: Homo sapiens, as a determination of p38 activity, read-out: IC50 values in the monocyte assay (LPS induced TNF release)
Protocol: Test compounds were evaluated in vitro for the ability to inhibit the production of TNF by monocytes activated with bacterial lipopolysaccharide (LPS). Fresh residual source leukocytes (a byproduct of plateletpheresis) were obtained from a local blood bank, and peripheral blood mononuclear cells (PBMCs) were isolated by density gradient centrifugation on Ficol-Paque Plus (Pharmacia). PBMCs were suspended at 2×10^6/ml in DMEM supplemented to contain 2% FCS, 10 mM, 0.3 mg/ml […], 100 U/ml penicillin G and […] streptomycin sulfate (complete media). Cells were plated into Falcon flat bottom, 96 well culture plates (200 μl/well) and cultured overnight at 37° C. and 6% CO2. Non-adherent cells were removed by washing with 200 μl/well of fresh medium. Wells containing adherent cells (˜70% monocytes) were replenished with 100 μl of fresh medium.
Test compounds were dissolved in […]. Compound stock solutions were prepared to an initial concentration of […]. Stocks were diluted initially to 20-200 μM in complete media. Nine two-fold serial dilutions of each compound were then prepared in complete medium.
One hundred microliters of each test compound dilution were added to microtiter wells containing adherent monocytes and 100 μl complete medium. Monocytes were cultured with test compounds for 60 min at which time 25 μl of complete medium containing 30 ng/ml lipopolysaccharide from E. coli K532 were added to each well. Cells were cultured an additional 4 hrs. Culture supernatants were then removed and TNF presence in the supernatants was quantified using an ELISA.
Flat bottom, 96 well Corning High Binding ELISA plates were coated overnight (4° C.) with 150 μL/well of 3 μg/ml murine anti-human TNF-α MAb (R&D Systems #MAB210). Wells were then blocked for 1 hr at room temperature with 200 μL/well of CaCl2-free ELISA buffer supplemented to contain 20 mg/ml BSA (standard ELISA buffer: […], 150 mM NaCl, 2 mM CaCl2, 0.15 mM thimerosal, pH 7.4). Plates were washed and replenished with 100 μl of test supernatants (diluted 1:3) or standards. Standards consisted of eleven 1.5-fold serial dilutions from a stock of 1 ng/ml recombinant human TNF (R&D Systems). Plates were incubated at room temperature for 1 hr on orbital shaker (300 rpm), washed and replenished with 100 μl/well of 0.5 μg/ml goat anti-human TNF-α (R&D systems #AB-210-NA) biotinylated at a 4:1 ratio. Plates were incubated for 40 min, washed and replenished with 100 μl/well of alkaline phosphatase-conjugated streptavidin (Jackson ImmunoResearch #016-050-084) at 0.02 μg/ml. Plates were incubated 30 min, washed and replenished with 200 μl/well of 1 mg/ml of p-nitrophenyl phosphate. After 30 min, plates were read at 405 nm on a Vmax plate reader.
Standard curve data were fit to a second order polynomial and unknown TNF-α concentrations determined from their OD by solving this equation for concentration. TNF concentrations were then plotted vs. test compound concentration using a second order polynomial. This equation was then used to calculate the concentration of test compounds causing a 50% reduction in TNF production.

CNc1cc(N(C)C(=O)Nc2cc(C(=O)Nc3cc(OC)cc(C(F)(F)F)c3)ccc2C)ncn1 [Example 18, 4-methyl-3-(((methyl(6-(methylamino)-4-pyrimidinyl)amino)carbonyl)amino)-N-(3-(methyloxy)-5-(trifluoromethyl)phenyl) benzamide]
IC50 [1]: < 5 µM | IC50 [2]: ≤ 5 µM

CNc1cc(N(C)C(=O)Nc2cc(C(=O)Nc3ccc4ccccc4c3)ccc2C)ncn1 [Example 23, 4-methyl-3-(((methyl(6-(methylamino)-4-pyrimidinyl)amino)carbonyl)amino)-N-(2-naphthalenyl) benzamide]
IC50 [1]: < 5 µM | IC50 [2]: ≤ 5 µM

CNc1cc(N(C)C(=O)Nc2cc(C(=O)Nc3ccc(C(C)(C)C)cc3)ccc2C)ncn1 [Example 25]
IC50 [1]: < 5 µM | IC50 [2]: ≤ 5 µM

CNc1cc(N(C)C(=O)Nc2cc(C(=O)Nc3cccc(C(F)(F)F)c3C)ccc2C)ncn1 [Example 20, 4-methyl-3-(((methyl(6-(methylamino)-4-pyrimidinyl)amino)carbonyl)amino)-N-(2-methyl-3-(trifluoromethyl)phenyl)benzamide]
IC50 [1]: < 5 µM | IC50 [2]: ≤ 5 µM

CNc1cc(N(C)C(=O)Nc2cc(C(=O)Nc3cccc(C(F)(F)F)c3F)ccc2C)ncn1 [Example 24, N-(2-fluoro-3-(trifluoromethyl)phenyl)-4-methyl-3-((methyl(6-(methylamino)-4-pyrimidinyl)amino)carbonylamino)benzamide]
IC50 [1]: < 5 µM | IC50 [2]: ≤ 5 µM

CNc1cc(N(C)C(=O)Nc2cc(C(=O)Nc3cccc(C(F)(F)F)c3)ccc2C)ncn1 [Example 16, ′4-methyl-3-(((methyl(6-(methylamino)-4-pyrimidinyl)amino)carbonyl)amino)-N-(3-(trifluoromethyl)phenyl) benzamide]
IC50 [1]: < 5 µM | IC50 [2]: ≤ 5 µM

CNc1cc(N(C)C(=O)Nc2cc(C(=O)Nc3cccc(C(C)C)c3)ccc2C)ncn1 [Example 17, 4-methyl-N-(3-(1-methylethyl)phenyl)-3-(((methyl(6-(methylamino)-4-pyrimidinyl)amino)carbonyl)amino) benzamide]
IC50 [1]: < 5 µM | IC50 [2]: ≤ 5 µM

CNc1cc(N(C)C(=O)Nc2cc(C(=O)Nc3ccc(C(F)(F)F)cc3)ccc2C)ncn1 [Example 32, 4-methyl-3-(((methyl(6-(methylamino)-4-pyrimidinyl)amino)carbonyl)amino)-N-(4-(trifluoromethyl)phenyl)benzamide]
IC50 [1]: < 5 µM | IC50 [2]: ≤ 5 µM

CNc1ncnc(N(C)C(=O)Nc2cc(C(=O)Nc3ccc4ccccc4c3)ccc2C)n1 [Example 30, 4-methyl-3-(((methyl(4-(methylamino)-1,3,5-triazin-2-yl)amino)carbonyl)amino)-N-(2-naphthalenyl) benzamide]
IC50 [1]: < 5 µM | IC50 [2]: ≤ 5 µM

CNc1cc(N(C)C(=O)Nc2cc(C(=O)Nc3cccc(-c4ccccc4)c3)ccc2C)ncn1 [Example 31, N-(1,1′-biphenyl-3-yl)-4-methyl-3-(((methyl(6-(methylamino)-4-pyrimidinyl)amino)carbonyl)amino)benzamide]
IC50 [1]: < 5 µM | IC50 [2]: ≤ 5 µM
